According to patent US11541065B2, “Compositions and methods for treating brain injury” (UNM RAINFOREST INNOVATIONS, priority 2018, dated 2023):

Legend:
[1] = test system: hyperhomocysteinemic rats subjected to MCAO; experiment: CatWalk gait analysis after MCAO; format: in vivo, male Wistar rats; details: HHcy rats, 7 days after MCAO, NVP-AAM077 1.2 mg/kg
Protocol: All rats were subjected to a battery of behavioral tests on day 7 (CatWalk), day 8 (cylinder and rotarod tests) and day 9 (adhesive test) after MCAO to evaluate normal gait, motor coordination and sensory motor functions. Habituation and training (3 days) was performed for one week before MCAO. The first two trainings days were before osmotic pump implantation and the third training day was after pump implantation. An experienced observer blinded to the experimental conditions evaluated all behavioral parameters.
Catwalk: An automated quantitative gait analysis system (Catwalk XT 10.5, Noldus) was used to assess deficits in normal gait in the control, hyperhomocysteinemic and NVP-AAM077 treated hyperhomocysteinemic rats as described earlier (Parkkinen et a., 2013, Stroke Res Treat 2013:410972; Wang et al., 2008, J Cereb Blood Flow Metab 28:1936-50). Briefly, rats were trained to walk on a glass platform or walkway (1.3 m long and 90 mm wide) with a fluorescent light reflected internally in the glass floor as the rats cross the walkway, scattering at points where the paws touch the glass. […] The camera recorded three such complete or successful runs across the walkway and the average of the three runs is reported. An experienced observer, blinded to the experimental group, labeled each paw on the recorded video and paw-related parameters were analyzed. […]

ERK MAPK = ERK MAPK phosphorylation in ipsilateral cortex after MCAO (immunoblot); format: in vivo, Wistar rats; details: HHcy rats, MCAO 60 min, three hours of reperfusion, vs vehicle treated rats
Protocol: FIG. 10. ERK MAPK phosphorylation. (A) Control and hyperhomocysteinemic (HHcy) rats were subjected to MCAO for 60 min followed by reperfusion (sham, 0, 3, 6, 12 h). Cortical tissue lysates from the ipsilateral hemisphere were analyzed by immunoblotting, using anti-pERK and anti-ERK antibodies. (B) Control, HHcy and HHcy rats treated with NVP-AAM077 (HHcy+NVP) were subjected to MCAO for 60 min followed by reperfusion for 3 h. Cortical tissue lysates from the ipsilateral hemisphere were analyzed by immunoblotting, using anti-pERK and anti-ERK antibodies. The extent of ERK MAPK phosphorylation was quantified using computer-assisted densitometry and Image J analysis. Values are mean±SEM (n=5). (A) *p<0.001 from corresponding control. (B) *p<0.001 from HHcy.
Next, whether a mild ischemic insult under hyperhomocysteinemic condition could lead to prolonged increase in ERK MAPK phosphorylation was evaluated using a middle cerebral artery occlusion (MCAO) model. Normal and hyperhomocysteinemic Wistar rats were subjected to MCAO for 60 minutes followed by reperfusion for specified time periods (0, 3, 6, 12 h). […] NVP-AM077, however, blocks the prolonged phosphrylation of ERK MAPK in hyperhomocysteinemic rats at three hours of reperfusion. […]

PGE2 = PGE2 level in ischemic brain (ELISA); format: in vivo, Wistar rats; details: HHcy rats, MCAO 60 minutes, six hours of reperfusion, NVP-AAM077 1.2 mg/kg intravenous at onset of insult
Protocol: (§1) Wistar rats were made hyperhomocysteinemic using osmotic pump containing L-homocysteine. Animals were hyperhomocysteinemic (19-23 μM) within three days of pump implantation. Ischemic stroke was induced by MCAO for 60 minutes followed by reperfusion for six hours. Tissue punches from the ipsilateral striatum and cortex were lysed in ice-cold Phosphate buffered saline (pH 7.4) containing phosphatase inhibitor, sonicated three times in five-second bursts and placed on ice (two minutes) between each burst of sonication. The lysed cell suspensions were centrifuged at 10,000 rpm (10 minutes) and the supernatant was collected in another tube. Equal amounts of protein from the supernatant were processed for PGE2 and MCP-1 levels using respective ELISA kit.

MCP-1 = MCP-1 level in ischemic brain (ELISA); format: in vivo, Wistar rats; details: HHcy rats, MCAO 60 minutes, six hours of reperfusion, NVP-AAM077 1.2 mg/kg intravenous at onset of insult
Protocol: as §1

Question: For `C[C@H](NC(c1cccc2[nH]c(=O)c(=O)[nH]c12)P(=O)(O)O)c1ccc(Br)cc1` (stereo partly drawn) [NVP-AAM077, ({[(1S)-1-(4-bromophenyl)ethyl]amino}-(2,3-dioxo-1,4-dihydroquinoxalin-5-yl)methyl)phosphonic acid], which “print position of the affected side” value ([1]; untreated HHcy 0.72±0.15) is on record?
Answer: 1.37±0.097 cm

Question: What about the “print area of the affected forepaw” value ([1]; untreated HHcy 1.06±0.097) of the same compound?
Answer: 1.41±0.092 cm^2

Question: What about the “ERK MAPK phosphorylation in ipsilateral cortex” value (ERK MAPK) of the same compound?
Answer: significant reduction ERK MAPK phosphorylation

Question: What about the “PGE2 level in ischemic hemisphere (cortex and striatum)” value (PGE2) of the same compound?
Answer: attenuated the increase in the level of both PGE2 and MCP-1

Question: What about the “MCP-1 level in ischemic hemisphere (cortex and striatum)” value (MCP-1) of the same compound?
Answer: attenuated the increase in the level of both PGE2 and MCP-1
